These results are taken from ChEMBL document CHEMBL3779870, “Differential metabolism of 3FDT and docetaxel in RLMs, rats, and HLMs” (Eur J Med Chem, 2016).

In general, clearance refers to a measure of how efficiently the substance is removed, as volume per time. Broadly, the IC50 is the concentration that inhibits the measured activity by half. High values mean a need for much substance, low ones inhibition by little substance. Broadly, the AUC(0-inf) is the area under the concentration-time curve extrapolated to infinity.

The target in series [1] is T1, Cytochrome P450 1A2 (Homo sapiens, UniProt P05177).
T1 sequence (P05177 whole entry): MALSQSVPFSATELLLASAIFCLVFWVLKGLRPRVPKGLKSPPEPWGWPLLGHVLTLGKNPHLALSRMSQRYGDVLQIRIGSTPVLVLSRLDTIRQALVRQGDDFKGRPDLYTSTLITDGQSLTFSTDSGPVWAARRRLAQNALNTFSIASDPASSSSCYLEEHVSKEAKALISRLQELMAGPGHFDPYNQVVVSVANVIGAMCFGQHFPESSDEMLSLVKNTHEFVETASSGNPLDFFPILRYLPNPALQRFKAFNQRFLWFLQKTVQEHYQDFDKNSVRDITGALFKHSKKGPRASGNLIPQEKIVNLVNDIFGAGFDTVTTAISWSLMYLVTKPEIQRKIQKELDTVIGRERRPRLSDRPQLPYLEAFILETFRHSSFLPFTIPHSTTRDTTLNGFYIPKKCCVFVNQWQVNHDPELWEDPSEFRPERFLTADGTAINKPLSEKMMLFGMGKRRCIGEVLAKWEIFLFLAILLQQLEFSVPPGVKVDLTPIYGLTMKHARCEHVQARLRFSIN
In words: Drug metabolism assessed as recombinant human CYP1A2 mediated metabolite formation at 10 uM preincubated for 5 mins followed by addition of NADPH measured after 120 mins by HPLC-TIC chromatography. The series is classed as ADME. As to conditions: recombinant enzyme, 2 h.

Series [2] has as its target T2, Cytochrome P450 2C8 (Homo sapiens, UniProt P10632).
T2 sequence (P10632 whole entry): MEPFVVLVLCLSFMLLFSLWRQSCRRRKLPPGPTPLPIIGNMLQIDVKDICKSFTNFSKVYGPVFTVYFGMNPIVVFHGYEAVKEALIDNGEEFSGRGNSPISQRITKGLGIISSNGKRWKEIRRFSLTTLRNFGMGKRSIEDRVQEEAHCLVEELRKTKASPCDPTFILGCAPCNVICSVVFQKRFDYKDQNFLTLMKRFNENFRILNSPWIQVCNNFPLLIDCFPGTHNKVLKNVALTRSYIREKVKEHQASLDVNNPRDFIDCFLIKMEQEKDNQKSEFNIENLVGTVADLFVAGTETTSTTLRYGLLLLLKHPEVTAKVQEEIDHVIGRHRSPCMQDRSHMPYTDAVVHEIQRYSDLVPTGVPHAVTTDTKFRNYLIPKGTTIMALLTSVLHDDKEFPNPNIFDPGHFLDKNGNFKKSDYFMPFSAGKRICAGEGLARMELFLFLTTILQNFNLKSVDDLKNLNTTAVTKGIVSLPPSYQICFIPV
In words: Drug metabolism assessed as recombinant human CYP2C8 mediated metabolite formation at 10 uM preincubated for 5 mins followed by addition of NADPH measured after 120 mins by HPLC-TIC chromatography. The series is classed as ADME. Conditions: recombinant enzyme, 2 h.

Series [3] has as its system Plasma. In words: Drug metabolism in Sprague-Dawley rat plasma assessed as 7-epi-3FDT formation at 40 mg/kg, iv administered as single dose after 4 to 24 hrs by HPLC-TIC chromatography. Conditions: in vivo. Format: ADME, organism-based.
Series [4] can be described thus: Drug metabolism in Sprague-Dawley rat feces assessed as metabolite M7 formation at 40 mg/kg, iv administered as single dose after 24 hrs by HPLC-TIC chromatography. As to conditions: in vivo. Format: ADME, organism-based.
Series [5] has as its target Cytochrome P450 2C9 (Homo sapiens, UniProt P11712). In words: Drug metabolism assessed as recombinant human CYP2C9 mediated metabolite formation at 10 uM preincubated for 5 mins followed by addition of NADPH measured after 120 mins by HPLC-TIC chromatography. As to conditions: recombinant enzyme, 2 h. The series is classed as ADME.
The nature of series [6]: Drug metabolism in Sprague-Dawley rat feces assessed as metabolite M2 formation at 40 mg/kg, iv administered as single dose after 24 hrs by HPLC-TIC chromatography. The series is classed as ADME, organism-based. Conditions: in vivo.
A short description of series [7]: Total clearance in Sprague-Dawley rat plasma. Format: ADME, organism-based.
Series [8] in a line: Cytotoxicity against human SKOV3 cells. Format: functional, cell-based. Conditions: SK-OV-3.
Series [9] deals with Cytochrome P450 3A5 (Homo sapiens, UniProt P20815). In words: Drug metabolism assessed as recombinant human CYP3A5 mediated metabolite M1 formation at 10 uM preincubated for 5 mins followed by addition of NADPH measured after 120 mins by HPLC-TIC chromatography. Conditions: recombinant enzyme, 2 h. Format: ADME.
In series [10] the test system is Plasma. In words: Drug metabolism in Sprague-Dawley rat plasma assessed as metabolite M2 formation at 40 mg/kg, iv administered as single dose after 4 to 24 hrs by HPLC-TIC chromatography. Format: ADME, organism-based. As to conditions: in vivo.
Series [11] in a line: AUC (0 to infinity) in Sprague-Dawley rat. Format: ADME, organism-based. On the set-up: time infinity. Conditions: in vivo.
In series [12] the target is Cytochrome P450 3A4 (Homo sapiens, UniProt P08684). The experiment in a line: Drug metabolism assessed as recombinant human CYP3A4 mediated metabolite M3 formation at 10 uM preincubated for 5 mins followed by addition of NADPH measured after 120 mins by HPLC-TIC chromatography. The series is classed as ADME. Conditions: recombinant enzyme, 2 h.
A short description of series [13]: Drug metabolism in Sprague-Dawley rat feces assessed as metabolite M6 formation at 40 mg/kg, iv administered as single dose after 24 hrs by HPLC-TIC chromatography. Format: ADME, organism-based. As to conditions: in vivo.
Series [14] has as its target T3, Cytochrome P450 2B6 (Homo sapiens, UniProt P20813).
T3 sequence (P20813 whole entry): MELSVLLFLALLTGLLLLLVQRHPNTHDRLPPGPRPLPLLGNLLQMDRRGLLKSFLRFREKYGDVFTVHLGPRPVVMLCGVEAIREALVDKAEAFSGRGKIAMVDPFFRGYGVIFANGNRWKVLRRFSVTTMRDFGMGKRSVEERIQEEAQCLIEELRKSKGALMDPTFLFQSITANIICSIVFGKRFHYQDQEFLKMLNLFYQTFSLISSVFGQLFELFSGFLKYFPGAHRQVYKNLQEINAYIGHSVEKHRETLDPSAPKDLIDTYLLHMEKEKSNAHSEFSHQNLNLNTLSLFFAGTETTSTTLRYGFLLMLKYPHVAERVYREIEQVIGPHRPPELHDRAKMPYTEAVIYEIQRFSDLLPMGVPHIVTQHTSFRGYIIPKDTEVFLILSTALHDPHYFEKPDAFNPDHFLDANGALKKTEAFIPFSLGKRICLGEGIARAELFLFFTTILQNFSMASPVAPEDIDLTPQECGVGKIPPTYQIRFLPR
The experiment in a line: Drug metabolism assessed as recombinant human CYP2B6 mediated metabolite formation at 10 uM preincubated for 5 mins followed by addition of NADPH measured after 120 mins by HPLC-TIC chromatography. The series is classed as ADME. As to conditions: recombinant enzyme, 2 h.

The nature of series [15]: Drug metabolism in Sprague-Dawley rat urine assessed as 7-epi-3FDT formation at 40 mg/kg, iv administered as single dose after 24 hrs by HPLC-TIC chromatography. Format: ADME, organism-based. Conditions: in vivo.
Series [16] addresses Cytochrome P450 2D6 (Homo sapiens, UniProt P10635). The experiment in a line: Drug metabolism assessed as recombinant human CYP2D6 mediated metabolite formation at 10 uM preincubated for 5 mins followed by addition of NADPH measured after 120 mins by HPLC-TIC chromatography. Format: ADME. Conditions: recombinant enzyme, 2 h.
Series [17] in a line: Drug metabolism in Sprague-Dawley rat feces assessed as metabolite M4 formation at 40 mg/kg, iv administered as single dose after 24 hrs by HPLC-TIC chromatography. Format: ADME, organism-based. Conditions: in vivo.

Sequence of Cytochrome P450 3A5 (P20815 whole entry): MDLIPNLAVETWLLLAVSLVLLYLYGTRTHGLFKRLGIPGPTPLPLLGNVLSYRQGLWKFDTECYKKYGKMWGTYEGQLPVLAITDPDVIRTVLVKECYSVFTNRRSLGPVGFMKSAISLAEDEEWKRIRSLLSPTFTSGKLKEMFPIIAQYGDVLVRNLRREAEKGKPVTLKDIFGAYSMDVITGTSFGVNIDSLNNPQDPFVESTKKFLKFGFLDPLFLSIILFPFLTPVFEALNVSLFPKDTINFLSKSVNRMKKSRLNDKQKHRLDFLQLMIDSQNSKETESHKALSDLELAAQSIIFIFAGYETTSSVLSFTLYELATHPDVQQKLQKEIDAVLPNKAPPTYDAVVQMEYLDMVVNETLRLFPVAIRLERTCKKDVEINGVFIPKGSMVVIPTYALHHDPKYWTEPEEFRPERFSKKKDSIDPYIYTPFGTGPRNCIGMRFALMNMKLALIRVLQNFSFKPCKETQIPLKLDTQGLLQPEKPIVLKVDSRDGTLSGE
Sequence of Cytochrome P450 2C9 (P11712 whole entry): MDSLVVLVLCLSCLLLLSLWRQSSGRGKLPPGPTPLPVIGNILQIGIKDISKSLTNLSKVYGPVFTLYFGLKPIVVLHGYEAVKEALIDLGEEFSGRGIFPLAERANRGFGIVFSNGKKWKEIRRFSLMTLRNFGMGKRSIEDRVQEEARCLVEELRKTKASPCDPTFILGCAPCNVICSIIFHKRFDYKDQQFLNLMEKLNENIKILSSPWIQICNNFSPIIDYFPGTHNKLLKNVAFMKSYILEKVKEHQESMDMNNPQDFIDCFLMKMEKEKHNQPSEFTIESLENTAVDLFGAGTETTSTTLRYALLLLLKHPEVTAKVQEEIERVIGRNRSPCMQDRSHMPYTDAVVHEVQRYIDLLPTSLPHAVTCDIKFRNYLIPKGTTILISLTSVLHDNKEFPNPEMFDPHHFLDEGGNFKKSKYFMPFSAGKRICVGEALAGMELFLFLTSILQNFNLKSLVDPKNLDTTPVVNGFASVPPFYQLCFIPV
Sequence of Cytochrome P450 2D6 (P10635 whole entry): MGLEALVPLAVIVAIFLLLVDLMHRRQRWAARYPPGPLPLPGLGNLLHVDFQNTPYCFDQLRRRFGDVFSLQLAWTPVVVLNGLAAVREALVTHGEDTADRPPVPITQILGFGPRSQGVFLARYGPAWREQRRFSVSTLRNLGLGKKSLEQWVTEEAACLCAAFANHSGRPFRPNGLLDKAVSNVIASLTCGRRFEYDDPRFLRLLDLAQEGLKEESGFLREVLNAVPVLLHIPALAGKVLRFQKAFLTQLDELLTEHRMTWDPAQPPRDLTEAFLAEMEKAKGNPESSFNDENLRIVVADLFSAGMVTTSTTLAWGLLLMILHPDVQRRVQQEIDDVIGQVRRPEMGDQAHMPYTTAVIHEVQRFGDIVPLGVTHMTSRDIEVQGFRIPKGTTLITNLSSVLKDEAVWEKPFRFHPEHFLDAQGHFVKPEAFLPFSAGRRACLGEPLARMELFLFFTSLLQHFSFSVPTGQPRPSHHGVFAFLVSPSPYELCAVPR
Sequence of Cytochrome P450 3A4 (P08684 whole entry): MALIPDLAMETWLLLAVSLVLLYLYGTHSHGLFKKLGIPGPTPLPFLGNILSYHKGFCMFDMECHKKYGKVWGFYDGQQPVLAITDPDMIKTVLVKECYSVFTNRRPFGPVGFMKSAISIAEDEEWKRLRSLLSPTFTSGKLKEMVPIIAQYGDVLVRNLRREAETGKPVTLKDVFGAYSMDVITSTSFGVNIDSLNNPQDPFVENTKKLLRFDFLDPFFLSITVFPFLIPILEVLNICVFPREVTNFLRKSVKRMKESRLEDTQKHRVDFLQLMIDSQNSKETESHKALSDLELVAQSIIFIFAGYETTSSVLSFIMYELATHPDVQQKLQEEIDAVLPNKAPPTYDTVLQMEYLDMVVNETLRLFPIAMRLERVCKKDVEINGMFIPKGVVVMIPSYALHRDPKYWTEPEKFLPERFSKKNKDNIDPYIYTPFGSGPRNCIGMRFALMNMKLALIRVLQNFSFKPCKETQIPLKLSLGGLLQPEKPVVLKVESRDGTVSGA

In the case of `CC(=O)O[C@@]12CO[C@@H]1C[C@H](O)[C@@]1(C)C(=O)[C@H](O)C3=C(C)[C@@H](OC(=O)[C@H](O)[C@@H](NC(=O)OC(C)(C)C(F)(F)F)c4ccccc4)C[C@@](O)([C@@H](OC(=O)c4ccccc4)C12)C3(C)C` (some centres not stated), the Drug metabolism entry is recorded as “metabolite_notdetected” in series [1]; “metabolite_notdetected” in series [2]; “metabolite_detected” in series [3]; “metabolite_detected” in [4]; “metabolite_notdetected” in [5]; “metabolite_detected” in series [6]. Further, the Drug metabolism entry is listed as “metabolite_detected” in series [9]; “metabolite_notdetected” in series [10]; “metabolite_detected” in series [12]; “metabolite_detected” in series [13]; “metabolite_notdetected” in series [14]; “metabolite_detected” in [15]. The values for the Drug metabolism entry in series [16] and in series [17] were “metabolite_notdetected” and “metabolite_detected”, respectively. Also, in [7], the clearance is 21 mL/min/kg. Besides, in series [8], the midpoint of inhibition, the IC50, lay at 0.01 nM. In [11], this molecule showed an AUC(0-inf) of 3960 ng·h/mL.
